One assay concerns the target MLLT1 (Homo sapiens, UniProt Q03111). Description: biochemical. Particulars: MLLT1 assay IC50 (nM), HTRF, 6His tagged MLLT1, biotinylated H3K9cro peptide; compound 20 μM to 20 nM, 11 data points in duplicate.
The target in a further assay is MLLT3 (Homo sapiens, UniProt P42568). Description: HTRF IC50 determination assay, MLLT3 / H3K9cro peptide displacement. The conditions noted are these: MLLT3 assay IC50 (nM), 6His tagged MLLT3, biotinylated H3K9cro peptide, compound 20 μM to 20 nM, 11 data points in duplicate.

Structures can show the parent of a compound that is named as a salt.

Chain of MLLT1 (Q03111 whole entry): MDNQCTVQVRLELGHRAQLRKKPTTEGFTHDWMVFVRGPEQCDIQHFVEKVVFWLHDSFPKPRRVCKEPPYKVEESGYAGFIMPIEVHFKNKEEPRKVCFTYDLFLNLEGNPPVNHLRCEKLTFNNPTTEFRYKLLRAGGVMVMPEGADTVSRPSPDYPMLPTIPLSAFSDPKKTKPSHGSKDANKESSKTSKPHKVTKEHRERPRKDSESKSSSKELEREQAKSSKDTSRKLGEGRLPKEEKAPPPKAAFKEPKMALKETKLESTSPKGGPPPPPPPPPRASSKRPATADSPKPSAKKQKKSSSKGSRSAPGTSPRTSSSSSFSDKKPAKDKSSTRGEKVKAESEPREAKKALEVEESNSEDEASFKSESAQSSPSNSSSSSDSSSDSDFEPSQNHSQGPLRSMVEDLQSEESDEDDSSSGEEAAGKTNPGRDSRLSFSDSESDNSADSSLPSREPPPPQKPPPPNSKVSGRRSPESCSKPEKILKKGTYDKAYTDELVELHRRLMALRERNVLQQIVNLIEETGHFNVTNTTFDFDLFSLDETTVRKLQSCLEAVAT
Chain of MLLT3 (P42568 whole entry): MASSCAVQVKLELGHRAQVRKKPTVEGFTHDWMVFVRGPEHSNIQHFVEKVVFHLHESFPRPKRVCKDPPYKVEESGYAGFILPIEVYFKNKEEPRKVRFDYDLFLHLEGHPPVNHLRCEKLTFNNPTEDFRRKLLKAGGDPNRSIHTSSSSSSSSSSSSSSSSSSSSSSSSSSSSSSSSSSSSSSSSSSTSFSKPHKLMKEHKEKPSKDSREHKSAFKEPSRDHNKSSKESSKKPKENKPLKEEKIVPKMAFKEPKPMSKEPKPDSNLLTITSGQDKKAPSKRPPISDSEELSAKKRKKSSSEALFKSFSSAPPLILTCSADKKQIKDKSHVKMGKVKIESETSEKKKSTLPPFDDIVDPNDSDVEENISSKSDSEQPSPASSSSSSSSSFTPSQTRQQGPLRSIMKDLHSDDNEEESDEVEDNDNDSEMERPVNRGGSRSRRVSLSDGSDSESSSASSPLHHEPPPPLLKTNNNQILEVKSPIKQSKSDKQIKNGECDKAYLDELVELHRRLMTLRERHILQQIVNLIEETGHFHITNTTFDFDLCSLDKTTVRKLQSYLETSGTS

As to `COc1cc(NC(=O)c2ccc3c(C)nn(C)c3c2)cn2cc(C3CCCN3C)nc12` (racemic) [Example 1, rac-N-[8-methoxy-2-(1-methylpyrrolidin-2-yl)imidazo[1,2-a]pyridin-6-yl]-1,3-dimethyl-indazole-6-carboxamide], the IC50 on MLLT1 and on MLLT3 was 150 to 1500 nM throughout.

As for `CN1CCOCC1c1cn2cc(NC(=O)c3ccc4c(cnn4C)c3)ccc2n1` (racemic) [Example 2, rac-1-methyl-N-[2-(4-methylmorpholin-3-yl)imidazo[1,2-a]pyridin-6-yl]indazole-5-carboxamide], the IC50 on MLLT1 and at MLLT3 was 1500 to 20000 nM throughout.

In the case of `CN1CC2(CCCC2)CC1c1cn2cc(NC(=O)c3ccc4c(cnn4C)c3)ccc2n1` (racemic) [Example 3, rac-1-methyl-N-(2-{2-methyl-2-azaspiro[4.4]nonan-3-yl}imidazo[1,2-a]pyridin-6-yl)indazole-5-carboxamide], the IC50 on MLLT1 and at MLLT3 was 150 to 1500 nM each time.

Regarding `CN1CCCC1(C)c1cn2cc(NC(=O)c3ccc4c(cnn4C)c3)ccc2n1` (racemic) [Example 4, rac-N-[2-(1,2-dimethylpyrrolidin-2-yl)imidazo[1,2-a]pyridin-6-yl]-1-methylindazole-5-carboxamide], the values for the IC50 on MLLT1 and on MLLT3 were 150 to 1500 nM and 1500 to 20000 nM, respectively.

Turning to `CN1CCCC1c1cn2cc(NC(=O)c3cnc4cc(Cl)ccc4c3)ccc2n1` (racemic) [Example 9, rac-7-chloro-N-[2-(1-methylpyrrolidin-2-yl)imidazo[1,2-a]pyridin-6-yl]quinoline-3-carboxamide], the half-inhibitory concentration (IC50) against MLLT1 and on MLLT3 was 1500 to 20000 nM in each case.

With `CN1CCCC1c1cn2cc(NC(=O)c3ccc4ncccc4n3)ccc2n1` (racemic) [Example 10, rac-N-[2-(1-methylpyrrolidin-2-yl)imidazo[1,2-a]pyridin-6-yl]-1,5-naphthyridine-2-carboxamide], the figures for the IC50 on MLLT1 and at MLLT3 were 1500 to 20000 nM and above 20000 nM, respectively.

As to `Cc1nc2ccc(C(=O)Nc3ccc4nc(C5CCCN5C)cn4c3)cc2nc1C` (racemic) [Example 11, rac-2,3-dimethyl-N-[2-(1-methylpyrrolidin-2-yl)imidazo[1,2-a]pyridin-6-yl]quinoxaline-6-carboxamide], the IC50 at MLLT1 and at MLLT3 was 150 to 1500 nM in each case.

On to `CN1CCCC1c1cn2cc(NC(=O)c3ccc(-n4cncn4)cc3)ccc2n1` (racemic) [Example 12, rac-N-[2-(1-methylpyrrolidin-2-yl)imidazo[1,2-a]pyridin-6-yl]-4-(1H-1,2,4-triazol-1-yl)benzamide], for which the values for the IC50 against MLLT1 and on MLLT3 were 150 to 1500 nM and 1500 to 20000 nM, respectively.

With `CN1CCCC1c1cn2cc(NC(=O)c3ccc(-n4cccn4)nc3)ccc2n1` (racemic) [Example 13, rac-N-[2-(1-methylpyrrolidin-2-yl)imidazo[1,2-a]pyridin-6-yl]-6-(1H-pyrazol-1-yl)pyridine-3-carboxamide], the IC50 at MLLT1 and at MLLT3 was 1500 to 20000 nM throughout.

Take `Cc1nn(C)c2cc(C(=O)Nc3ccc4nc(C5CCCN5C)cn4c3)ccc12` (racemic) [Example 14, rac-1,3-dimethyl-N-[2-(1-methylpyrrolidin-2-yl)imidazo[1,2-a]pyridin-6-yl]-1H-indazole-6-carboxamide]: the IC50 against MLLT1 and on MLLT3 was 150 to 1500 nM each time.

As for `Cc1nn(C)c2ncc(C(=O)Nc3ccc4nc(C5CCCN5C)cn4c3)c(Cl)c12` (racemic) [Example 15, rac-4-chloro-1,3-dimethyl-N-[2-(1-methylpyrrolidin-2-yl)imidazo[1,2-a]pyridin-6-yl]-1H-pyrazolo[3,4-b]pyridine-5-carboxamide], the IC50 against MLLT1 and on MLLT3 was 1500 to 20000 nM each time.

For the compound `Cc1nc(-c2ccc(C(=O)Nc3ccc4nc(C5CCCN5C)cn4c3)cc2)cs1` (racemic) [Example 16, rac-4-(2-methyl-1,3-thiazol-4-yl)-N-[2-(1-methylpyrrolidin-2-yl)imidazo[1,2-a]pyridin-6-yl]benzamide], the IC50 against MLLT1 and at MLLT3 was 150 to 1500 nM throughout.

`COc1ccc2nc(C(=O)Nc3ccc4nc(C5CCCN5C)cn4c3)sc2c1` (racemic) [Example 17, rac-6-methoxy-N-[2-(1-methylpyrrolidin-2-yl)imidazo[1,2-a]pyridin-6-yl]-1,3-benzothiazole-2-carboxamide]: the IC50 at MLLT1 and on MLLT3 was 1500 to 20000 nM in each case.

Regarding `Cc1nn(C)c2sc(C(=O)Nc3ccc4nc(C5CCCN5C)cn4c3)cc12` (racemic) [Example 18, rac-1,3-dimethyl-N-[2-(1-methylpyrrolidin-2-yl)imidazo[1,2-a]pyridin-6-yl]-1H-thieno[2,3-c]pyrazole-5-carboxamide], the IC50 at MLLT1 and on MLLT3 was 1500 to 20000 nM each time.

In the case of `Cc1noc2cc(C(=O)Nc3ccc4nc(C5CCCN5C)cn4c3)ccc12` (racemic) [Example 29, rac-3-methyl-N-[2-(1-methylpyrrolidin-2-yl)imidazo[1,2-a]pyridin-6-yl]-1,2-benzoxazole-6-carboxamide], the IC50 against MLLT1 and on MLLT3 was 1500 to 20000 nM throughout.

As to `Cc1nn(C)c2cc(C(=O)Nc3ccc4nc(C5CCCN5C)cn4c3)c(F)cc12` (racemic) [Example 30, rac-5-fluoro-1,3-dimethyl-N-[2-(1-methylpyrrolidin-2-yl)imidazo[1,2-a]pyridin-6-yllindazole-6-carboxamide], the IC50 on MLLT1 and at MLLT3 was 150 to 1500 nM throughout.

As for `Cc1nn(C)c2nc(C(=O)Nc3ccc4nc(C5CCCN5C)cn4c3)ccc12` (racemic) [Example 31, rac-1,3-dimethyl-N-[2-(1-methylpyrrolidin-2-yl)imidazo[1,2-a]pyridin-6-yl]-1H-pyrazolo[3,4-b]pyridine-6-carboxamide], the IC50 against MLLT1 and at MLLT3 was 1500 to 20000 nM in each case.

In the case of `CN1CCCC1c1cn2cc(NC(=O)c3ccn4ccnc4c3)ccc2n1` (racemic) [Example 32, rac-N-[2-(1-methylpyrrolidin-2-yl)imidazo[1,2-a]pyridin-6-yl]imidazo[1,2-a]pyridine-7-carboxamide], the values for the IC50 against MLLT1 and on MLLT3 were 150 to 1500 nM and 1500 to 20000 nM, respectively.

With `CN1CCCC1c1cn2cc(NC(=O)c3ccn4cnnc4c3)ccc2n1` (racemic) [Example 33, rac-N-[2-(1-methylpyrrolidin-2-yl)imidazo[1,2-a]pyridin-6-yl]-[1,2,4]triazolo[4,3-alpyridine-7-carboxamide], the values for the IC50 against MLLT1 and on MLLT3 were 150 to 1500 nM and 1500 to 20000 nM, respectively.

`CN1CCCC1c1cn2cc(NC(=O)c3cn4ccncc4n3)ccc2n1` (racemic) [Example 34, rac-N-[2-(1-methylpyrrolidin-2-yl)imidazo[1,2-a]pyridin-6-yl]imidazo[1,2-a]pyrazine-2-carboxamide]: the IC50 against MLLT1 and at MLLT3 was 1500 to 20000 nM in each case.

For `CCc1nnc2cc(C(=O)Nc3ccc4nc(C5CCCN5C)cn4c3)ccn12` (racemic) [Example 35, rac-3-ethyl-N-[2-(1-methylpyrrolidin-2-yl)imidazo[1,2-a]pyridin-6-yl]-[1,2,4]triazolo[4,3-a]pyridine-7-carboxamide formate], the IC50 at MLLT1 and at MLLT3 was 1500 to 20000 nM each time.

For `CN1CCCC1c1cn2cc(NC(=O)c3ccc4nc[nH]c4n3)ccc2n1` (racemic) [Example 36, rac-N-[2-(1-methylpyrrolidin-2-yl)imidazo[1,2-a]pyridin-6-yl]-3H-imidazo[4,5-b]pyridine-5-carboxamide], the IC50 on MLLT1 is 1500 to 20000 nM; at MLLT3, above 20000 nM.

On to `CN1CCCC1c1cn2cc(NC(=O)c3ccc4ncoc4c3)ccc2n1` (racemic) [Example 37, rac-N-[2-(1-methylpyrrolidin-2-yl)imidazo[1,2-a]pyridin-6-yl]-1,3-benzoxazole-6-carboxamide], for which the IC50 at MLLT1 fell in the range of 150 to 1500 nM; on MLLT3, 1500 to 20000 nM.

Take `COc1ccc(-c2nc(C(=O)Nc3ccc4nc(C5CCCN5C)cn4c3)cs2)cc1` (racemic) [Example 38, rac-2-(4-methoxyphenyl)-N-[2-(1-methylpyrrolidin-2-yl)imidazo[1,2-a]pyridin-6-yl]-1,3-thiazole-4-carboxamide]: the half-inhibitory concentration (IC50) at MLLT1 and on MLLT3 was 1500 to 20000 nM in each case.

At MLLT3, `CCc1nn(C)c2ccc(C(=O)Nc3ccc4nc(C5CCCN5C)cn4c3)cc12` (racemic) [Example 61, rac-3-ethyl-1-methyl-N-[2-(1-methylpyrrolidin-2-yl)imidazo[1,2-a]pyridin-6-yl]-1H-indazole-5-carboxamide] yielded an IC50 of 150 to 1500 nM.

`CCC1CC(c2cn3cc(NC(=O)c4ccc5c(C)nn(C)c5c4)ncc3n2)N(C)C1` (single isomer, unassigned) [Example 77, N-{2-[4-ethyl-1-methylpyrrolidin-2-yl]imidazo[1,2-a]pyrazin-6-yl}-1,3-dimethyl-1H-indazole-6-carboxamide] showed a 50% inhibitory concentration (IC50) at MLLT3 of 1500 to 20000 nM.

`CCC1CC(c2cn3cc(NC(=O)c4ccc5c(C)nn(C)c5c4)ncc3n2)N(C)C1` (single isomer, unassigned) [Example 78, N-{2-[4-ethyl-1-methylpyrrolidin-2-yl]imidazo[1,2-a]pyrazin-6-yl}-1,3-dimethyl-1H-indazole-6-carboxamide] showed an IC50 at MLLT3 of 150 to 1500 nM.

With `CCC1CC(c2cn3cc(NC(=O)c4ccc5c(C)nn(C)c5c4)ncc3n2)N(C)C1` (single isomer, unassigned) [Example 79, N-{2-[4-ethyl-1-methylpyrrolidin-2-yl]imidazo[1,2-a]pyrazin-6-yl}-1,3-dimethyl-1H-indazole-6-carboxamide], at MLLT3, the IC50 was below 150 nM.

In turn, `CCC1CC(c2cn3cc(NC(=O)c4ccc5c(C)nn(C)c5c4)ncc3n2)N(C)C1` (single isomer, unassigned) [Example 80, N-{2-[4-ethyl-1-methylpyrrolidin-2-yl]imidazo[1,2-a]pyrazin-6-yl}-1,3-dimethyl-1H-indazole-6-carboxamide] returned an IC50 on MLLT3 below 150 nM.

The record behind these values is US20260216196A1, “IMIDAZO[1,2-A]PYRIDINE AND IMIDAZO[1,2-A]PYRAZINE DERIVATIVES AS MLLT1 AND MLLT3 INHIBITORS” (DARK BLUE THERAPEUTICS LTD., priority 2022, published 2026).
